Assay results as given in article PMC7490372, “Structural bases of IMiD selectivity that emerges by 5-hydroxythalidomide” (Nature Communications, 2020).

Target: T1, cereblon (CRBN) (Homo sapiens, UniProt Q96SW2)
T1 construct: biotinylated CRBN (wheat cell-free); with SALL4
Assay: AlphaScreen-based ternary complex formation, dose-dependent, in cell-free translation mixtures

T1 sequence (Q96SW2 whole entry): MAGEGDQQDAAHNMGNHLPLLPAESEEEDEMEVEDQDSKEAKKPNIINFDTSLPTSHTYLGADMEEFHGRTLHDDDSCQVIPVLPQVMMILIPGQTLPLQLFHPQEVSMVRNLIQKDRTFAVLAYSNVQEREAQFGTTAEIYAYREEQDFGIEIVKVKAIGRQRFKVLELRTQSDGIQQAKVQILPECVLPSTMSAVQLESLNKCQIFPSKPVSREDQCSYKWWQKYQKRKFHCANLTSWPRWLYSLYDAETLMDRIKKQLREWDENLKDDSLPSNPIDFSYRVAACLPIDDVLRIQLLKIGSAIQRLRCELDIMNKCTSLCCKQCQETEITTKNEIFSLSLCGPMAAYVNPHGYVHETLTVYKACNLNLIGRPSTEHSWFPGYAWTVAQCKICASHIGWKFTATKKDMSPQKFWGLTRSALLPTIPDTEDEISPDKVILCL
T1 sequence (Q9UJQ4 whole entry partner): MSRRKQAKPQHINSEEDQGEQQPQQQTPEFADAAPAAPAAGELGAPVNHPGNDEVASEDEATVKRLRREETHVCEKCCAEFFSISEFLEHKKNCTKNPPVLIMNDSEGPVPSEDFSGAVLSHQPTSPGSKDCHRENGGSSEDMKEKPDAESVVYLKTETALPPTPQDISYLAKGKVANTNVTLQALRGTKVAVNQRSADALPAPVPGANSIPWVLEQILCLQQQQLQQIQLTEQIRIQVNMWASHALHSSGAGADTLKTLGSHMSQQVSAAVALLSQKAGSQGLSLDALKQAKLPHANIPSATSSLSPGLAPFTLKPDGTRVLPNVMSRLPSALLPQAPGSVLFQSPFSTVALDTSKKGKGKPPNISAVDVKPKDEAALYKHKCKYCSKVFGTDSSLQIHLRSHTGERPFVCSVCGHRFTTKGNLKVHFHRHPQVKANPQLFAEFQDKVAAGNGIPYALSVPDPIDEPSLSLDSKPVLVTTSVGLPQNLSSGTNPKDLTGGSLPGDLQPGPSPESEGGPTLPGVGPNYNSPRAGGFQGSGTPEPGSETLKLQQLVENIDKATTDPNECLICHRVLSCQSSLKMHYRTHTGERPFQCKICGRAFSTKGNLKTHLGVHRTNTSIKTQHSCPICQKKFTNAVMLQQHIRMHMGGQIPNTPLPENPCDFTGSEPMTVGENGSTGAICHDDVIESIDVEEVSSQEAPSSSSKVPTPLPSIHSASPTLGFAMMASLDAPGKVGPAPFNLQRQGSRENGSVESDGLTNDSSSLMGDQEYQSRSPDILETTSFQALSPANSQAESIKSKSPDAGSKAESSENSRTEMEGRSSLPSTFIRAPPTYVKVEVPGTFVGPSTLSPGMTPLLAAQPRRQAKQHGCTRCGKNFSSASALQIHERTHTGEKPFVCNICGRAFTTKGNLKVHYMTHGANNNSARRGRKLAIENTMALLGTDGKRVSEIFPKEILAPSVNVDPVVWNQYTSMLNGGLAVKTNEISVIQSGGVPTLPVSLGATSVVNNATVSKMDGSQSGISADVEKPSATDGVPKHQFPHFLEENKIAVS

**Q.** With `Nc1c(O)ccc2c1C(=O)N(C1CCC(=O)NC1=O)C2=O` (stereo not shown) [5HP, 5-hydroxypomalidomide] as the compound, how does the “AlphaScreen-based ternary complex formation, dose-dependent, in cell-free transl” value read?
**A.** Its value is “Dose-dependent interaction of CRBN with SALL4 (left) and IKZF1 (right), as observed with the titration of racemate, Pom, and 5HP”.
